# Experimental data from ChEMBL document CHEMBL1201862, “PubChem BioAssay data set” (2004).
#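 Cultured in 96-well plates, cells were exposed to test compound for 48 hours across five concentrations. Abbreviation: GI50, concentration required for 50% inhibition of growth.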 The source made the active and inactive calls. No stated cut-off is given here; in the data, active = GI50 up to about 1.1 µM and inactive = higher.
# Columns and labels:
# Assay in all cases: growth of human tumour cells (NCI), 48 h
# LOX IMVI = tested on: LOX IMVI
# OVCAR-8 = tested on: OVCAR-8
# TK-10 = tested on: TK-10
# EKVX = tested on: EKVX
# SK-MEL-2 = tested on: SK-MEL-2
# KM12 = tested on: KM12
# HCC 2998 = tested on: HCC 2998
# HOP-92 = tested on: HOP-92
# SK-MEL-28 = tested on: SK-MEL-28
# OVCAR-4 = tested on: OVCAR-4
# SF-268 = tested on: SF-268
# HOP-62 = tested on: HOP-62
# HCT-116 = tested on: HCT-116
# SF-539 = tested on: SF-539
# NCI-H522 = tested on: NCI-H522
# SW-620 = tested on: SW-620
# UACC-257 = tested on: UACC-257
# SNB-75 = tested on: SNB-75
# 786-0 = tested on: 786-0
# SN12C = tested on: SN12C
# NCI-H226 = tested on: NCI-H226
# MDA-MB-231 = tested on: MDA-MB-231
# BT-549 = tested on: BT-549
# Hs-578T = tested on: Hs-578T
# RXF 393 = tested on: RXF 393
# A549 = tested on: A549
# SNB-19 = tested on: SNB-19
# OVCAR-3 = tested on: OVCAR-3
# ACHN = tested on: ACHN
# NCI-H460 = tested on: NCI-H460
# M14 = tested on: M14
# DU-145 = tested on: DU-145
# IGROV-1 = tested on: IGROV-1
# NCI/ADR-RES = tested on: NCI/ADR-RES
# PC-3 = tested on: PC-3
# U-251 = tested on: U-251
# T47D = tested on: T47D
# MDA-MB-435 = tested on: MDA-MB-435
# HCT-15 = tested on: HCT-15
# Malme-3M = tested on: Malme-3M
# MCF7 = tested on: MCF7
# K562 = tested on: K562
# SK-MEL-5 = tested on: SK-MEL-5
# SF-295 = tested on: SF-295
# HT-29 = tested on: HT-29
# SK-OV-3 = tested on: SK-OV-3
# CCRF-CEM = tested on: CCRF-CEM
# A498 = tested on: A498
# MOLT-4 = tested on: MOLT-4
# OVCAR-5 = tested on: OVCAR-5
# COLO 205 = tested on: COLO 205
# NCI-H23 = tested on: NCI-H23
# HL-60 = tested on: HL-60
# UACC-62 = tested on: UACC-62
# UO-31 = tested on: UO-31
# RPMI-8226 = tested on: RPMI-8226
# CAKI-1 = tested on: CAKI-1
# SR = tested on: SR
# MDA-N = tested on: MDA-N
structure (smiles),measurement,setting,value
COc1ccc2[nH]c3c(O)c(-c4c(C)cc5c([nH]c6ccc(OC)cc65)c4O)c(C)cc3c2c1,GI50,LOX IMVI,4.38 µM (inactive)
same,GI50,OVCAR-8,4.5 µM (inactive)
same,GI50,TK-10,4.45 µM (inactive)
same,GI50,EKVX,4.09 µM (inactive)
same,GI50,SK-MEL-2,5.41 µM (inactive)
same,GI50,KM12,4.24 µM (inactive)
same,GI50,HCC 2998,3.7 µM (inactive)
same,GI50,HOP-92,4.51 µM (inactive)
same,GI50,SK-MEL-28,5.55 µM (inactive)
same,GI50,OVCAR-4,3.88 µM (inactive)
same,GI50,SF-268,4.48 µM (inactive)
same,GI50,HOP-62,4.83 µM (inactive)
same,GI50,HCT-116,4.22 µM (inactive)
same,GI50,SF-539,4.86 µM (inactive)
same,GI50,NCI-H522,4.93 µM (inactive)
same,GI50,SW-620,4.41 µM (inactive)
same,GI50,UACC-257,4.24 µM (inactive)
same,GI50,SNB-75,3.85 µM (inactive)
same,GI50,786-0,4.91 µM (inactive)
same,GI50,SN12C,4.43 µM (inactive)
same,GI50,NCI-H226,4.38 µM (inactive)
same,GI50,MDA-MB-231,5.74 µM (inactive)
same,GI50,BT-549,4.62 µM (inactive)
same,GI50,Hs-578T,6.28 µM (inactive)
same,GI50,RXF 393,4.84 µM (inactive)
same,GI50,A549,4.05 µM (inactive)
same,GI50,SNB-19,4.69 µM (inactive)
same,GI50,OVCAR-3,4.35 µM (inactive)
same,GI50,ACHN,4.66 µM (inactive)
same,GI50,NCI-H460,3.98 µM (inactive)
same,GI50,M14,4.13 µM (inactive)
same,GI50,DU-145,4.43 µM (inactive)
same,GI50,IGROV-1,4.34 µM (inactive)
same,GI50,NCI/ADR-RES,4.24 µM (inactive)
same,GI50,PC-3,4.27 µM (inactive)
same,GI50,U-251,4.31 µM (inactive)
same,GI50,T47D,9.86 µM (inactive)
COc1cc2nc(-c3cccs3)nc(Nc3cccc(Cl)c3)c2cc1OC,GI50,MDA-MB-435,61.9 µM (inactive)
same,GI50,HCT-15,88.9 µM
same,GI50,LOX IMVI,42.6 µM (inactive)
same,GI50,OVCAR-8,37.8 µM (inactive)
same,GI50,TK-10,2.3 µM (inactive)
same,GI50,EKVX,88.9 µM (inactive)
same,GI50,SK-MEL-2,> 100 µM (inactive)
same,GI50,KM12,43.2 µM (inactive)
same,GI50,Malme-3M,27.7 µM (inactive)
same,GI50,HOP-92,55 µM (inactive)
same,GI50,SK-MEL-28,81.8 µM (inactive)
same,GI50,MCF7,53.6 µM (inactive)
same,GI50,K562,> 100 µM (inactive)
same,GI50,SK-MEL-5,> 100 µM (inactive)
same,GI50,SF-295,22.5 µM (inactive)
same,GI50,OVCAR-4,28.8 µM (inactive)
same,GI50,SF-268,31.3 µM (inactive)
same,GI50,HOP-62,20.3 µM (inactive)
same,GI50,HCT-116,> 100 µM (inactive)
same,GI50,HT-29,> 100 µM (inactive)
same,GI50,SK-OV-3,48.1 µM (inactive)
same,GI50,SF-539,37.2 µM (inactive)
same,GI50,NCI-H522,64.6 µM (inactive)
same,GI50,SW-620,> 100 µM (inactive)
same,GI50,CCRF-CEM,34 µM (inactive)
same,GI50,UACC-257,> 100 µM (inactive)
same,GI50,SNB-75,36.3 µM (inactive)
same,GI50,786-0,53.2 µM (inactive)
same,GI50,SN12C,> 100 µM (inactive)
same,GI50,NCI-H226,50.6 µM (inactive)
same,GI50,MDA-MB-231,> 100 µM (inactive)
same,GI50,A498,> 100 µM (inactive)
same,GI50,BT-549,59.2 µM (inactive)
same,GI50,Hs-578T,31.6 µM (inactive)
same,GI50,MOLT-4,61.8 µM (inactive)
same,GI50,A549,50.9 µM (inactive)
same,GI50,OVCAR-5,> 100 µM (inactive)
same,GI50,SNB-19,35.2 µM (inactive)
same,GI50,COLO 205,> 100 µM (inactive)
same,GI50,NCI-H23,54.6 µM (inactive)
same,GI50,HL-60,> 100 µM (inactive)
same,GI50,OVCAR-3,52.8 µM (inactive)
same,GI50,ACHN,78.5 µM (inactive)
same,GI50,NCI-H460,42.8 µM (inactive)
same,GI50,M14,78.3 µM (inactive)
same,GI50,UACC-62,> 100 µM (inactive)
same,GI50,DU-145,90.6 µM (inactive)
same,GI50,IGROV-1,61.1 µM (inactive)
same,GI50,NCI/ADR-RES,48.2 µM (inactive)
same,GI50,PC-3,21.1 µM (inactive)
same,GI50,UO-31,> 100 µM (inactive)
same,GI50,RPMI-8226,51.9 µM (inactive)
same,GI50,CAKI-1,> 100 µM (inactive)
same,GI50,U-251,35.9 µM (inactive)
same,GI50,T47D,44.6 µM (inactive)
same,GI50,SR,91.6 µM (inactive)
COc1ccc(OC)c(C(Cc2ccnc3ccccc23)Cc2ccnc3ccccc23)c1,GI50,MDA-MB-435,0.56 µM (active)
same,GI50,HCT-15,6.44 µM
same,GI50,LOX IMVI,5.36 µM (inactive)
same,GI50,OVCAR-8,> 10 µM (inactive)
same,GI50,TK-10,> 10 µM (inactive)
same,GI50,EKVX,5.15 µM (inactive)
same,GI50,SK-MEL-2,9.73 µM (inactive)
same,GI50,KM12,7.29 µM (inactive)
same,GI50,HCC 2998,> 10 µM (inactive)
same,GI50,HOP-92,4.09 µM (inactive)
same,GI50,SK-MEL-28,> 10 µM (inactive)
same,GI50,MCF7,4.93 µM (inactive)
same,GI50,K562,4.53 µM (inactive)
same,GI50,SK-MEL-5,3.66 µM (inactive)
same,GI50,SF-295,6.71 µM (inactive)
same,GI50,OVCAR-4,6.11 µM (inactive)
same,GI50,SF-268,> 10 µM (inactive)
same,GI50,HOP-62,> 10 µM (inactive)
same,GI50,HCT-116,0.857 µM (active)
same,GI50,HT-29,6.5 µM (inactive)
same,GI50,SK-OV-3,> 10 µM (inactive)
same,GI50,SF-539,> 10 µM (inactive)
same,GI50,NCI-H522,6.32 µM (inactive)
same,GI50,SW-620,> 10 µM (inactive)
same,GI50,CCRF-CEM,8.57 µM (inactive)
same,GI50,UACC-257,> 10 µM (inactive)
same,GI50,SNB-75,6.11 µM (inactive)
same,GI50,786-0,> 10 µM (inactive)
same,GI50,SN12C,> 10 µM (inactive)
same,GI50,NCI-H226,9.57 µM (inactive)
same,GI50,MDA-MB-231,> 10 µM (inactive)
same,GI50,A498,> 10 µM (inactive)
same,GI50,BT-549,4.09 µM (inactive)
same,GI50,Hs-578T,8.63 µM (inactive)
same,GI50,RXF 393,> 10 µM (inactive)
same,GI50,MOLT-4,5.79 µM (inactive)
same,GI50,A549,> 10 µM (inactive)
same,GI50,OVCAR-5,> 10 µM (inactive)
same,GI50,SNB-19,> 10 µM (inactive)
same,GI50,COLO 205,8.04 µM (inactive)
same,GI50,NCI-H23,> 10 µM (inactive)
same,GI50,OVCAR-3,> 10 µM (inactive)
same,GI50,ACHN,> 10 µM (inactive)
same,GI50,NCI-H460,5.47 µM (inactive)
same,GI50,M14,> 10 µM (inactive)
same,GI50,UACC-62,> 10 µM (inactive)
same,GI50,DU-145,> 10 µM (inactive)
same,GI50,IGROV-1,> 10 µM (inactive)
same,GI50,NCI/ADR-RES,8.39 µM (inactive)
same,GI50,PC-3,5.28 µM (inactive)
same,GI50,UO-31,6.68 µM (inactive)
same,GI50,RPMI-8226,5.18 µM (inactive)
same,GI50,CAKI-1,> 10 µM (inactive)
same,GI50,U-251,> 10 µM (inactive)
same,GI50,T47D,6.25 µM (inactive)
CC(C)(C)C1=NC(=S)SC2=NC(=O)C3(NN21)c1ccccc1-c1ccccc13,GI50,MDA-MB-435,> 10 µM (inactive)
same,GI50,HCT-15,9.27 µM
same,GI50,LOX IMVI,> 10 µM (inactive)
same,GI50,OVCAR-8,> 10 µM (inactive)
same,GI50,TK-10,> 10 µM (inactive)
same,GI50,EKVX,2.67 µM (inactive)
same,GI50,KM12,> 10 µM (inactive)
same,GI50,Malme-3M,> 10 µM (inactive)
same,GI50,HCC 2998,> 10 µM (inactive)
same,GI50,HOP-92,> 10 µM (inactive)
same,GI50,SK-MEL-28,> 10 µM (inactive)
same,GI50,MCF7,4.43 µM (inactive)
same,GI50,K562,5.05 µM (inactive)
same,GI50,SK-MEL-5,3.44 µM (inactive)
same,GI50,MDA-N,8.41 µM (inactive)
same,GI50,SF-295,> 10 µM (inactive)
same,GI50,OVCAR-4,7.98 µM (inactive)
same,GI50,SF-268,> 10 µM (inactive)
same,GI50,HOP-62,> 10 µM (inactive)
same,GI50,HT-29,> 10 µM (inactive)
same,GI50,SK-OV-3,> 10 µM (inactive)
same,GI50,NCI-H522,9.25 µM (inactive)
same,GI50,SW-620,> 10 µM (inactive)
same,GI50,CCRF-CEM,8.71 µM (inactive)
same,GI50,UACC-257,> 10 µM (inactive)
same,GI50,SNB-75,> 10 µM (inactive)
same,GI50,786-0,9.57 µM (inactive)
same,GI50,SN12C,> 10 µM (inactive)
same,GI50,NCI-H226,6.07 µM (inactive)
same,GI50,MDA-MB-231,9.46 µM (inactive)
same,GI50,BT-549,6.35 µM (inactive)
same,GI50,RXF 393,> 10 µM (inactive)
same,GI50,MOLT-4,3.45 µM (inactive)
same,GI50,A549,7.26 µM (inactive)
same,GI50,SNB-19,> 10 µM (inactive)
same,GI50,COLO 205,> 10 µM (inactive)
same,GI50,NCI-H23,> 10 µM (inactive)
same,GI50,HL-60,6.79 µM (inactive)
same,GI50,ACHN,6.14 µM (inactive)
same,GI50,NCI-H460,4.61 µM (inactive)
same,GI50,M14,> 10 µM (inactive)
same,GI50,UACC-62,> 10 µM (inactive)
same,GI50,DU-145,> 10 µM (inactive)
same,GI50,IGROV-1,> 10 µM (inactive)
same,GI50,NCI/ADR-RES,5.41 µM (inactive)
same,GI50,PC-3,7.21 µM (inactive)
same,GI50,UO-31,6.58 µM (inactive)
same,GI50,RPMI-8226,5.08 µM (inactive)
same,GI50,CAKI-1,> 10 µM (inactive)
same,GI50,T47D,2.04 µM (inactive)
same,GI50,SR,4.59 µM (inactive)
